By DC50 is commonly meant the concentration at which degradation of the target reaches its halfway point. Read a high DC50 as degradation only at high concentration. Broadly, the IC50 is the point on the concentration scale where inhibition reaches its midpoint.

What all share (assay type): cell-based
In one assay the target is T1, KRAS(G12D) (Homo sapiens, UniProt P01116, G12D).
T1 construct: introduced immediately downstream of the initiating Methionine codon of the endogenous KRAS locus; host or cells: GP5d-HiBit-KRAS(G12D), a CRISPR knock-in at the endogenous locus
T1 sequence (P01116 1-188 isoform P01116-2 G12D): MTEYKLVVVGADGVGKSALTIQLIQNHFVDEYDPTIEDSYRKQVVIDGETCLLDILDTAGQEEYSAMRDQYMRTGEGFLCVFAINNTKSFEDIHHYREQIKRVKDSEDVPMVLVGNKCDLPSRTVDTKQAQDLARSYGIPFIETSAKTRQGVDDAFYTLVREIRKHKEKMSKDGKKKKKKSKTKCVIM
The assay is described as follows: HiBit degradation assay in GP5d-HiBit-KRAS(G12D) cells (18 h; DC50, Dmax). The protocol:
A HiBit protein detection tag (amino acid sequence […], Seq ID No 1) was introduced immediately downstream of the initiating Methionine codon of the endogenous KRAS locus (Ensembl gene ID ENSG00000133703.7) of GP5d cells (ECACC Cat. No. 95090715) by CRISPR-based genome engineering using a KRAS(G12D) mutant donor construct encoding the HiBit tag. […] Correct modification of the KRAS locus was assessed by PCR-based genotyping and Sanger sequencing of the isolated PCR products. The resulting cell line is referred to as GP5d-HiBit-KRAS(G12D).
To assess PROTAC-mediated degradation of KRAS(G12D), GP5d-HiBit-KRAS(G12D) cells were seeded at 25000 cells per well in 100 μL Dulbecco's Modified Eagle medium (Sigma cat. no. D6429) supplemented with 10% fetal calf serum into white bottom opaque 96 well plates (Perkin Elmer cat no. 5680). Plates were incubated at 37° C., 5% CO2 in a humidified incubator over night to allow the cells to adhere. […] Plates were further incubated at 37° C. for 18 hours. Following incubation, 100 μL per well Promega Nano-Glo HiBit lytic detection reagent mix (Promega Nano-Glo HiBit Lytic Detection System #N3050), prepared according to the manufacturer's instructions in the kit, were added. To allow for adequate cell lysis, plates were incubated on an orbital shaker for 15 min and further incubated 30 min at room temperature. Upon completion of cell lysis, luminescence was measured using an Envision plate reader using the Ultrasensitive Luminescence Protocol for 96 well plates. Luminescence levels were normalized by the values obtained with DMSO-treated samples and plotted as percent of DMSO control. DC50 values were computed using a four parametric logistic model. Dmax values represent the maximal extent of degradation observed and is stated as percent of control (% Ctrl.) treatments. DC50 and Dmax are reported in Table 64 for representative compounds of the invention.

Another assay concerns AsPC-1 cells. The assay is described as follows: AsPC-1 CTG proliferation assay (120 h) (pancreatic cancer, G12D). As to conditions: Homo sapiens, ASPC1, AsPC-1 proliferation. The protocol:
AsPC-1 CTG Proliferation Assay (120 h) (Pancreatic Cancer, G12D)
The CTG assay is designed to measure quantitatively the proliferation of AsPC-1 cells (ATCC […]), using the CellTiter Glow Assay Kit (Promega G7571). Cells are grown in RPMI medium (ATCC) supplemented with Fetal Calf Serum (Life Technologies, Gibco BRL, Cat. No. 10270-106). On “day 0” 2000 AsPC-1 cells are seeded in 60 μL RPMI ATCC+10% FCS+ Penstrep in a 384-well plate, flat and clear bottom (Greiner, PNr. 781091). Cells are then incubated in the plates at 37° C. in a CO2 incubator overnight. On day 1, compounds (10 mM stock in DMSO) are added with the ECHO acoustic liquid handler system (Beckman Coulter), including DMSO controls. Plates are incubated for 120 h, and cell viability is measured using CellTiter-Glo luminescent cell viability reagent (Promega product code G7570). Viability (stated as percent of control) is defined as relative luminescence units RLU of each well divided by the RLU of cells in DMSO controls. IC50 values are determined from viability measurements by non-linear regression using a four-parameter model.

A further assay deals with SK—CO-1 cells. The experiment in a line: SK-CO-1 CTG proliferation assay (120 h) (CRC, G12V). As to conditions: Homo sapiens, SK-CO-1 proliferation. The procedure: SK—CO-1 CTG Proliferation Assay (120 h) (CRC, G12V)
(§1) SK—CO-1 cells (ATCC HTB-39) are dispensed into 384-well plates, flat and clear bottom (Greiner, PNr. 781091) at a density of 500 cells per well in 60 μL EMEM (Sigma M5650)+10% Fetal Calf Serum (HyClone, PNr.: SH30084.03) and incubated at 37° C. in a CO2 incubator overnight. The next day, compounds (10 mM stock in DMSO) are added with the ECHO acoustic liquid handler system (Beckman Coulter), including DMSO controls. Plates are incubated for 120 h, and cell viability is measured using CellTiter-Glo luminescent cell viability reagent (Promega product code G7570). Viability (stated as percent of control) is defined as relative luminescence units RLU of each well divided by the RLU of cells in DMSO controls. IC50 values are determined from viability measurements by non-linear regression using a four-parameter model.

The subject of another assay is SAS cells. The experiment in a line: SAS CTG proliferation assay (120 h) (HNSCC, wt amplified). The protocol: SAS CTG Proliferation Assay (120 h) (HNSCC, Wt Amplified)
as §1, with “SAS” for “SK—CO-1”, “(JCRB0260)” for “(ATCC HTB-39)”, “300” for “500”, “DMEM:F12 (Gibco 31330-038)+10%” for “EMEM (Sigma M5650)+10%”

A further assay relates to NCI-H358 cells. The assay is described as follows: NCI-H358 CTG proliferation assay (120 h) (NSCLC, G12C). To be noted: Homo sapiens, assay 2, read-out: H358 (assay 2) IC50. The procedure: NCI-H358 CTG Proliferation Assay (120 h) (NSCLC, G12C)
NCI-H358 cells (ATCC No. CRL-5807) are dispensed into white bottom opaque 96 well plates (Perkin Elmer cat no. 5680) at a density of 2000 cells per well in 100 μL RPMI-1640 ATCC-Formulation (Gibco #A10491)+10% FCS (fetal calf serum) (assay 1) or into black 384-well plates, flat and clear bottom (Greiner, PNr. 781091) at a density of 200 cells per well in 60 μl RPMI-1640 ATCC-Formulation (Gibco #A10491)+10% FCS (fetal calf serum) (assay 2). […] Compounds (10 mM stock in DMSO) are added at logarithmic dose series using the HP Digital Dispenser D300 (Tecan) (assay 1) or the ECHO acoustic liquid handler system (Beckman Coulter) (assay 2), normalizing for added DMSO and including DMSO controls. For the TO time point measurement, untreated cells are analyzed at the time of compound addition. Plates are incubated for 120 h, and cell viability is measured using CellTiter-Glo luminescent cell viability reagent (Promega product code G7570). Viability (stated as percent of control) is defined as relative luminescence units RLU of each well divided by the RLU of cells in DMSO controls. IC50 values are determined from viability measurements by non-linear regression using a four parameter model.

The next assay deals with LOVO cells. The experiment in a line: LOVO CTG proliferation assay (120 h) (CRC, G13D). As to conditions: Homo sapiens. The protocol:
LOVO CTG Proliferation Assay (120 h) (CRC, G13D)
as §1, with “LOVO” for “SK—CO-1”, “CCL-229)” for “HTB-39)”, “1000” for “500”, “DMEM” for “EMEM”, “D6429)+10%” for “M5650)+10%”

`Cc1ncsc1-c1ccc(CNC(=O)[C@@H]2C[C@@H](O)CN2C(=O)C(c2cc(OCCCCN3CCCN(c4nccc(-c5cc([C@@]6(C)CCCc7sc(N)c(C#N)c76)no5)n4)[C@@H](C)C3)no2)C(C)C)cc1` (some centres unmarked) [I-6]: it took 0.0089 µM to reach half-maximal degradation at KRAS(G12D) (DC50). For the same compound, on KRAS(G12D), the “Dmax 18 h” value was determined as 92 % Ctrl. Further, the IC50 with AsPC-1 cells was 0.645 µM; with SK—CO-1 cells, 1.21 µM; in the assay on SAS cells, 17 µM; in the assay on NCI-H358 cells, 0.253 µM.

Regarding `COC(=O)[C@H](NC(=O)[C@@H]1C[C@@H](O)CN1C(=O)C(C(C)C)n1cc(OCCCCN2CCCN(c3nccc(-c4noc([C@@]5(C)CCCc6sc(N)c(C#N)c65)n4)n3)[C@@H](C)C2)nn1)c1ccc(-c2scnc2C)cc1` (some centres unmarked) [I-33], the IC50 worked out at 0.05 µM in the assay on LOVO cells, 0.323 µM in the assay on AsPC-1 cells, 1.95 µM with SK—CO-1 cells and 0.0845 µM in the assay with SAS cells. The compound further gave a DC50 on KRAS(G12D) of 0.0131 µM. Also, the “Dmax 18 h” value on KRAS(G12D) was determined as 91 % Ctrl.

As to `CC(C)C(C(=O)N1C[C@H](O)C[C@H]1C(=O)NCc1ccc(-c2scnc2CO)cc1)c1cc(OCCCCN2CCCN(c3nccc(-c4noc([C@@]5(C)CCCc6sc(N)c(C#N)c65)n4)n3)[C@@H](C)C2)no1` (some centres unmarked) [I-9], the half-maximal inhibitory concentration (IC50) is 0.0594 µM with LOVO cells; 0.47 µM in the assay with AsPC-1 cells; 0.216 µM in the assay on SK—CO-1 cells; 16.4 µM in the assay with SAS cells; 0.288 µM in the assay on NCI-H358 cells. It took 0.0129 µM to reach half-maximal degradation at KRAS(G12D) (DC50). Besides, the “Dmax 18 h” value at KRAS(G12D) is listed as 92 % Ctrl.

In the case of `CC(C)C(C(=O)N1C[C@H](O)C[C@H]1C(=O)NCc1ccc(C#N)c(Cl)c1)c1cc(OCCCCN2CCCN(c3nccc(-c4noc([C@@]5(C)CCCc6sc(N)c(C#N)c65)n4)n3)[C@@H](C)C2)no1` (some centres unmarked) [I-18], the IC50 amounted to 0.278 µM in the assay on LOVO cells; 0.435 µM in the assay on AsPC-1 cells; 0.124 µM in the assay with SK—CO-1 cells; 3.38 µM in the assay on SAS cells; 0.169 µM in the assay on NCI-H358 cells. This compound also yielded a DC50 on KRAS(G12D) of 0.0041 µM. In addition, at KRAS(G12D), the “Dmax 18 h” value came to 89 % Ctrl.

Regarding `Cc1ncsc1-c1ccc([C@H](CO)NC(=O)[C@@H]2C[C@@H](O)CN2C(=O)C(C(C)C)n2cc(OCCCCN3C[C@H](C)N(c4nccc(-c5noc([C@@]6(C)CCCc7sc(N)c(C#N)c76)n5)n4)CCC3(C)C)nn2)cc1` (some centres unmarked) [I-32], the IC50 in the assay with LOVO cells was found to be 0.929 µM; with AsPC-1 cells, 8.33 µM; in the assay with SK—CO-1 cells, 0.507 µM; in the assay with SAS cells it was 9.44 µM. The DC50 on KRAS(G12D) stood at 0.0076 µM. The “Dmax 18 h” value on KRAS(G12D) is recorded as 83 % Ctrl.
